{"source": "patent US6355799B1", "about": "“Substituted benzene compounds, process for their preparation, and herbicidal and defoliant compositions containing them” (ISK Americas Incorporated, priority 1997, dated 2002)", "format_in_all_cases": "in vivo", "key": {"[1]": {"system": "field corn (Zea mays L., var. Dekalb 535, CORN)", "test": "Post-emerge test, crop safety", "conditions": "post-emerge, crop damage rating 0-100 at 14 days after application", "procedure,_shortened": "(§1)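 Compounds in acetone were track-sprayed at 187 l/ha, 15–1000 g ai/ha, onto sandy loam pots. Pre-emerge seeds were sown one day before spraying, with surface watering afterwards. Post-emerge plants were at the 2–3 leaf stage and sprayed with 0.25% v/v non-ionic surfactant. Injury was rated 0–100 at 14 days.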"}, "[2]": {"system": "upland rice (Oryza sp., var. Tebonnet, RICE)", "test": "Post-emerge test, crop safety", "conditions": "post-emerge, crop damage rating 0-100 at 14 days after application", "procedure,_shortened": "as §1"}, "[3]": {"system": "sicklepod (Cassia obtusifolia, CASOB)", "test": "Post-emerge test, greenhouse herbicide activity screening", "conditions": "post-emerge, phytotoxicity rating 0-100 at 14 days after application", "procedure,_shortened": "as §1"}, "[4]": {"system": "redroot pigweed (Amaranthus retroflexus, AMARE)", "test": "Post-emerge test, greenhouse herbicide activity screening", "conditions": "post-emerge, phytotoxicity rating 0-100 at 14 days after application", "procedure,_shortened": "as §1"}, "[5]": {"system": "barnyardgrass (Echinochloa crus-galli, ECHCG)", "test": "Post-emerge test, greenhouse herbicide activity screening", "conditions": "post-emerge, phytotoxicity rating 0-100 at 14 days after application", "procedure,_shortened": "as §1"}, "[6]": {"system": "green foxtail (Setaria viridis, SETVI)", "test": "Post-emerge test, greenhouse herbicide activity screening", "conditions": "post-emerge, phytotoxicity rating 0-100 at 14 days after application", "procedure,_shortened": "as §1"}, "[7]": {"system": "lambsquarters (Chenopodium album, CHEAL)", "test": "Post-emerge test, greenhouse herbicide activity screening", "conditions": "post-emerge, phytotoxicity rating 0-100 at 14 days after application", "procedure,_shortened": "as §1"}, "[8]": {"system": "johnsongrass (Sorghum halepense, SORHA)", "test": "Post-emerge test, greenhouse herbicide activity screening", "conditions": "post-emerge, phytotoxicity rating 0-100 at 14 days after application", "procedure,_shortened": "as §1"}, "[9]": {"system": "ivyleaf morningglory (Ipomoea hederacea, IPOHE)", "test": "Post-emerge test, greenhouse herbicide activity screening", "conditions": "post-emerge, phytotoxicity rating 0-100 at 14 days after application", "procedure,_shortened": "as §1"}, "[10]": {"system": "large crabgrass (Digitaria sanguinalis, DIGSA)", "test": "Post-emerge test, greenhouse herbicide activity screening", "conditions": "post-emerge, phytotoxicity rating 0-100 at 14 days after application", "procedure,_shortened": "as §1"}, "[11]": {"system": "velvetleaf (Abutilon theophrasti, ABUTH)", "test": "Post-emerge test, greenhouse herbicide activity screening", "conditions": "post-emerge, phytotoxicity rating 0-100 at 14 days after application", "procedure,_shortened": "as §1"}}}
{"smiles": "COc1c(Cl)cc(F)c(-n2c(=O)n3n(c2=O)CCCC3)c1NC(=O)c1ccc2ccccc2c1", "note": "[9-15]", "values": [{"measurement": "Post-emerge Herbicidal Activity CORN", "setting": "[1]; 63 g ai/ha", "result": 5}, {"measurement": "Post-emerge Herbicidal Activity CORN", "setting": "[1]; 250 g ai/ha", "result": 10}, {"measurement": "Post-emerge Herbicidal Activity RICE", "setting": "[2]; 63 g ai/ha", "result": 40}, {"measurement": "Post-emerge Herbicidal Activity RICE", "setting": "[2]; 250 g ai/ha", "result": 70}, {"measurement": "Post-emerge Herbicidal Activity CASOB", "setting": "[3]; 63 g ai/ha", "result": 100}, {"measurement": "Post-emerge Herbicidal Activity CASOB", "setting": "[3]; 250 g ai/ha", "result": 100}, {"measurement": "Post-emerge Herbicidal Activity AMARE", "setting": "[4]; 63 g ai/ha", "result": 100}, {"measurement": "Post-emerge Herbicidal Activity AMARE", "setting": "[4]; 250 g ai/ha", "result": 100}, {"measurement": "Post-emerge Herbicidal Activity ECHCG", "setting": "[5]; 63 g ai/ha", "result": 0}, {"measurement": "Post-emerge Herbicidal Activity ECHCG", "setting": "[5]; 250 g ai/ha", "result": 10}, {"measurement": "Post-emerge Herbicidal Activity SETVI", "setting": "[6]; 63 g ai/ha", "result": 10}, {"measurement": "Post-emerge Herbicidal Activity SETVI", "setting": "[6]; 250 g ai/ha", "result": 35}, {"measurement": "Post-emerge Herbicidal Activity CHEAL", "setting": "[7]; 63 g ai/ha", "result": 100}, {"measurement": "Post-emerge Herbicidal Activity CHEAL", "setting": "[7]; 250 g ai/ha", "result": 100}, {"measurement": "Post-emerge Herbicidal Activity SORHA", "setting": "[8]; 63 g ai/ha", "result": 0}, {"measurement": "Post-emerge Herbicidal Activity SORHA", "setting": "[8]; 250 g ai/ha", "result": 10}, {"measurement": "Post-emerge Herbicidal Activity IPOHE", "setting": "[9]; 63 g ai/ha", "result": 100}, {"measurement": "Post-emerge Herbicidal Activity IPOHE", "setting": "[9]; 250 g ai/ha", "result": 100}, {"measurement": "Post-emerge Herbicidal Activity DIGSA", "setting": "[10]; 63 g ai/ha", "result": 0}, {"measurement": "Post-emerge Herbicidal Activity DIGSA", "setting": "[10]; 250 g ai/ha", "result": 20}, {"measurement": "Post-emerge Herbicidal Activity ABUTH", "setting": "[11]; 63 g ai/ha", "result": 100}, {"measurement": "Post-emerge Herbicidal Activity ABUTH", "setting": "[11]; 250 g ai/ha", "result": 100}]}
